Patent EP4796561A1, “ANTI-SYNAPTOTAGMIN 2 ANTIBODY” (Jiksak Bioengineering, Inc., priority 2023, dated 2025)
Blank lines part the entries; values can stand above or below the molecule they belong to. Where a SMILES comes first, the peptide text is derived from it. [ ]: non-standard residue; d: D form. The star is where a group is joined. Dolaproine = CO[C@@H]([C@@H]1CCCN1)[C@@H](C)C(=O)O; Dil = CC[C@H](C)[C@H](NC)[C@@H](CC(=O)O)OC; X1 = C[C@@H](N*)[C@@H](O)c1ccccc1; NMeV = CN[C@H](C(=O)O)C(C)C

Tests used:
[1] = test system: Human iPS-derived motor neuron; assay: Pharmacological effect of antibody-MMAE conjugates: axonal amount (Tuj1 staining) in motor neuron neurospheres with LRRTM2 bead-induced presynapse; assay type: cell-based; conditions: normalized to Cont. IgG-MMAE set to 100%; 1µg/mL, 30 minutes with 100µM 4-aminopyridine, then 24 hours culture; Tuj1 brightness
Description: Human iPS-derived motor neuron (40HU-005-2M; ixcells biotechnologies) was thawed using Dead Cell Removal kit (Veritas) according to the protocol of the kit. The cells after thawing were plated in 96-well plates (V-bottom) at a density of 2×10^4 cells/well and cultured in the motor neuron culture medium (Motor Neuron Maintenance Medium; ixcells biotechnologies) for 1 week to prepare neurospheres. The prepared neurospheres were selected based on size and roundness, and those satisfying this criterion were used in the subsequent experiments.
After coating a 96-well EZVIEW (registered trademark) culture plate LB (AGC Technoglass Co., Ltd.) with poly-D-lysine and Geltrex (registered trademark) Matrix (Thermo Fisher Scientific), the selected neurospheres were then plated and cultured for 20 days. As the medium, the above-described motor neuron culture medium was used first, and medium change with the same medium was performed on the second day of culture. Thereafter, medium was changed three times per week using neuronal medium (Neurobasal plus medium (B27 plus supplement (Thermo Fisher Scientific), 20ng/mL BDNF, 20ng/mL GDNF, and penicillin-streptomycin were added)). Each medium change was performed at 50 µL/well.
Microbeads coated with the extracellular domain of LRRTM2 (active beads) were prepared as disclosed in WO2021/006075. […]

[2] = biological target: human Synaptotagmin 2 expressed on HEK293T cells (human) (UniProt Q8N9I0); assay: flow cytometry on HEK293T cells expressing human SYT2 at 0.01 µg/mL antibody; reference is the polyclonal rabbit anti-SYT2 N-terminal antibody (Synaptic Systems 105 223)
Chain of UniProt Q8N9I0 (Q8N9I0 whole entry): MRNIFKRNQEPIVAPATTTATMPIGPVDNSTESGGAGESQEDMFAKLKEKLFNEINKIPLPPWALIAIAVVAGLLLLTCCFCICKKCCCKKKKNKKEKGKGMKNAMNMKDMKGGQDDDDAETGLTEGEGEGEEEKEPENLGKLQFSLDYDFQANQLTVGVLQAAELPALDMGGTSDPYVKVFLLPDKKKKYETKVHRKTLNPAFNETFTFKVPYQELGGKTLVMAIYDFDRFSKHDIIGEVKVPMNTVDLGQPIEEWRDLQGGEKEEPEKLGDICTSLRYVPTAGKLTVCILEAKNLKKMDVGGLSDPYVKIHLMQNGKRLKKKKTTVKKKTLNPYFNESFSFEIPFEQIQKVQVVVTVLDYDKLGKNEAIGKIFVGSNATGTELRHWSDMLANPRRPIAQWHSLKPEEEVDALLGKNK

Molecule: CC[C@H](C)[C@@H]([C@@H](CC(=O)N1CCC[C@H]1[C@H](OC)[C@@H](C)C(=O)N[C@H](C)[C@@H](O)c1ccccc1)OC)N(C)C(=O)[C@@H](NC(=O)[C@@H](NC)C(C)C)C(C)C [MMAE, monomethyl auristatin E] (H-[NMeV]V[Dil][Dolaproine]-X1)
relative amount of axon [1]: no significant differences

fluorescence intensity relative to the control polyclonal antibody [2]: 2 fold
B1: monoclonal antibody according to the present invention (anti-Synaptotagmin 2 intravesicular domain (N-terminal) monoclonal antibody) (antibody, V domains shown)
VH: EVQLQQSGAELVRPGASVKLSCTASGFNIKDDYVHWVKQRPEQGLEWIGWIDPENGDTEYASKFQGKATITADASSNAAYLQLSSLTSEDTAAYYCTTDYYNNPFAYWGQGTLVTVSA
VL: QIVLTQSPAIMSASPGEKVTITCSASSSVSYMHWFQQKPGTSPKLWIYSTSKLASGVPVRFSGSGSGTSYSLTISRMEAEDAATYYCQQRSSYPFTFGSGTKLEIK
